For the experiment, the system named is asexual P. falciparum 3D7 parasites. Briefly: P. falciparum growth inhibition assay with LDH activity readout (Assay 1). The class given is cell-based, Plasmodium falciparum. To be noted: 3D7 strain, 72 h incubation, LDH activity read by absorbance at 650 nm. Here is the method: A modified version of the assay described in Gamo, F. J., Sanz, L. M., Vidal, J., de Cozar, C., Alvarez, E., Lavandera, J. L., Vanderwall, D. E., Green, D. V., Kumar, V., Hasan, S., Brown, J. R., Peishoff, C. E., Cardon, L. R., Garcia-Bustos, J. F., Nature, 465 (2010) 305-310 (Gamo et al.) was used to assess the activity of compounds against asexual P. falciparum 3D7 parasites. Compounds were pre-dispensed in 384-well plates, RPMI/AlbuMAX growth media was added and P. falciparum inoculated. Plates were incubated for 72 h and then frozen at −80° C. overnight. LDH activity was quantified with the modified cofactor 3-acetylpyridine adenine dinucleotide (APAD) (Sigma Aldrich) by measuring absorbance of the tetrazolium indicator nitro blue tetrazolium (NBT) (Sigma Aldrich) at 650 nm.
An inoculum of synchronous P. falciparum (3D7 strain) parasitized red blood cells (PRBC) at 0.7% parasitaemia and 2% haematocrit in RPMI-1640, 5% AlbuMAX, 2% D-sucrose, 0.3% glutamine and 150 μM hypoxanthine was used for the assay.
Compound master plates (384-well) were prepared by a 10 pt serial dilution of compounds, from 1 mM to 50.8 nM, in columns 3-12 and 13-22. DMSO was dispensed into columns 1 and 23 of the compound master plate to be used as the positive growth control (100% viability). […] Intermediate compound dilution plates were prepared by dispensing 1 μl from each well of the compound master plate into 11.5 μl of RPMI/AlbuMAX growth media. Duplicate assay plates (384-well) were then prepared by dispensing 0.5 μL of compound from the intermediate dilution plates into 9.5 μl of RPMI/AlbuMAX growth media. The parasite inoculum (30 μL) was dispensed into the assay plates containing compounds using a Multidrop dispenser (Thermo Scientific) such that the final assay volume was 40 μL and final compound concentration was 1 μM-0.05 nM (the volume of compound addition can be adjusted to the preferred and agreed screening concentration). The final DMSO concentration was 0.1% (ideally 0.2% to limit toxicity to parasites), but this is dependent on volume of compound DMSO stock solution that can be supplied. Plates were incubated at 37° C. for 72 h in an atmosphere of 5% CO2, 5% O2, […].
After 72 h of incubation, plates were frozen at −80° C. overnight and then thawed at room temperature for at least 4 h. To evaluate LDH activity, 45 μL of freshly made reaction mix (174 mM sodium L-lactate (Sigma Aldrich), 214 μM 3-acetyl pyridine adenine dinucleotide (APAD) (Sigma Aldrich), 270 μM nitro blue tetrazolium chloride (NBT) (Sigma Aldrich), 4.35 U/mL diaphorase (from Clostridium kluyveri) (Sigma Aldrich), 0.7% Tween 20, 100 mM Tris-HCl pH 7.5) was dispensed using a Multidrop dispenser (Thermo Scientific). Plates were shaken to ensure mixing and absorbance at 650 nm was monitored using a Perkin Elmer Envision plate reader after 30 min of incubation at room temperature. Data were normalized to percent growth inhibition using positive and negative controls, and analysed using TIBCO Spotfire software.
P. falciparum 3D7 strain was grown as described in Assay 1, at 37° C. for 72 hours. The culture was frozen at −80° C. overnight. Cultures were thawed at room temperature for at least 4 hours and the reaction mixture described in Assay 1 was made in order to measure the possible direct inhibition of LDH by the following compounds, assayed as above in Assay 1.
Broadly, the IC50 is the concentration that gives 50% inhibition. The compound `CC(=O)N1CCN(C(=O)c2cc(F)cc(CN3C(=N)NC(c4ccccc4)(c4ccccc4)C3=O)c2)CC1` [Compound 1] had a half-maximal inhibitory concentration (IC50) of 4.5 nM.
For `N=C1NC(C[C@@H]2CCCO2)(c2ccccc2)C(=O)N1Cc1ccc(C(F)(F)F)c(C(=O)N2Cc3nccnc3C2)c1` (some centres unmarked) [Compound 2] the value was 5.8 nM; for `CC(C)CC[C@]1(c2ccccc2)NC(=N)N(Cc2ccc(C(F)(F)F)c(C(=O)N3CC(O)C(F)C3)c2)C1=O` (some centres unmarked) [Compound 3], 9.6 nM; for `N=C1NC(c2ccc(F)cc2)(C2CCCCC2)C(=O)N1Cc1ccc(C(F)(F)F)c(C(=O)N2Cc3nccnc3C2)c1` (centres unmarked) [Compound 4], 9.7 nM.
The result for `CC(C)CC[C@]1(c2ccccc2)NC(=N)N(Cc2ccc(C(C)(C)C)c(C(=O)NCc3cccnc3)c2)C1=O` [Compound 11] reads 172 nM.

Values taken from patent US20210379020A1, “COMPOUNDS FOR THE TREATMENT OF MALARIA” (Merck Sharp & Dohme Corp., priority 2016, published 2021).
